In article PMC10238281 (International Journal of Biological Macromolecules, 2023):

Legend:
SARS2-S pseudovirus = experiment: microbe, parasite or virus in culture; format: cell-based, SARS-CoV-2; conditions: for activity at 2 µM: A549-ACE2, 72 h, read-out: Luciferase ratio (%), 2 μM
[1] = Tissue distribution / pharmacokinetics in female ICR mice; format: in vivo
spike RBD protein = spike RBD protein (Severe acute respiratory syndrome coronavirus 2, UniProt P0DTC2); format: binding, SARS-CoV-2

CN1CCN(c2ccc(-c3cnc4[nH]cc(C(=O)c5ccc(F)cc5)c4c3)cc2)CC1 [ASM-2, (4-Fluorophenyl)(5-(4-(4-methylpiperazin-1-yl)phenyl)-1H-pyrrolo[2,3-b]pyridin-3-yl)methanone]
activity at 2 µM (SARS2-S pseudovirus; Pseudovirus): < 25%

O=C(c1ccc(F)cc1)c1c[nH]c2ncc(-c3ccc(N4CCNCC4)nc3)cc12 [ASM-7, (4-Fluorophenyl)(5-(6-(piperazin-1-yl)pyridin-3-yl)-1H-pyrrolo[2,3-b]pyridin-3-yl)methanone]
Organ distribution (heart, liver, spleen, lung, kidney, brain) ([1]; female ICR mice, 1 h after oral administration (30 mg/kg)): favorable targetability towards the lung
Blood versus lung concentration ([1]; female ICR mice, intravenous administration, 5 min): concentration of ASM-7 in the lung was substantially higher
Detection in the lung after oral administration ([1]; female ICR mice, oral, 4 h): could still be detected in the lung
concentration at 5 min ([1]; female, ICR, mouse, lung, iv, 3 mg/kg): 30000 ng/g
Fold advantage of EC50 over G7a (SARS2-S pseudovirus): 20 fold
EC50 (SARS2-S pseudovirus; Pseudovirus, A549-ACE2, read-out: EC50, inhibition of SARS2-S pseudovirus entry): 450 nM

O=C(CCCCC1SCC2NC(=O)NC21)NCCCCCC(=O)N1CCN(c2ccc(-c3cnc4[nH]cc(C(=O)c5ccc(F)cc5)c4c3)cn2)CC1 (centres unmarked) [Biotin-ASM-7, N-(6-(4-(5-(3-(4-Fluorobenzoyl)-1H-pyrrolo[2,3-b]pyridin-5-yl)pyridin-2-yl)piperazin-1-yl)-6-oxohexyl)-5-(2-oxohexahydro-1H-thieno[3,4-d]imidazol-4-yl)pentanamide]
Binding / pull-down of spike RBD protein by streptavidin IP (spike RBD protein): could pull down the spike RBD protein

O=C(CCCCC1SCC2NC(=O)NC21)NCCCCCC(=O)N1CCN(c2ccc(-c3cnc4[nH]c(/C=C/c5ccccc5O)nc4c3)cn2)CC1 (centres unmarked) [Biotin-G7a, (E)-N-(6-(4-(5-(2-(2-Hydroxystyryl)-3H-imidazo[4,5-b]pyridin-6-yl)pyridin-2-yl)piperazin-1-yl)-6-oxohexyl)-5-(2-oxohexahydro-1H-thieno[3,4-d]imidazol-4-yl)pentanamide]
Binding / pull-down of spike RBD protein by streptavidin IP (spike RBD protein): retained the ability to bind spike RBD protein

COc1ccc(C(=O)c2c[nH]c3ncc(-c4ccc(N5CCNCC5)nc4)cc23)cc1 [ASM-4, (4-Methoxyphenyl)(5-(6-(piperazin-1-yl)pyridin-3-yl)-1H-pyrrolo[2,3-b]pyridin-3-yl)methanone]
activity at 2 µM (SARS2-S pseudovirus; Pseudovirus): < 25%

O=C(c1cccc(F)c1)c1c[nH]c2ncc(-c3ccc(N4CCNCC4)nc3)cc12 [ASM-9, (3-Fluorophenyl)(5-(6-(piperazin-1-yl)pyridin-3-yl)-1H-pyrrolo[2,3-b]pyridin-3-yl)methanone]
activity at 2 µM (SARS2-S pseudovirus; Pseudovirus): < 25%
